# Results published in a melting point compilation (Tetko et al.; mined from patent text by program, amines drawn as free bases though some values may be those of a salt).
row,SMILES,melting point [°C]
1,CC1c2cc(O)ccc2-c2ccc(O)cc21,192 to 196
2,c1csc(-c2cnc(-c3cccs3)s2)c1,93 to 93.8
3,CC(=O)C(=[N+]=[N-])C(=O)CCc1ccc(S(=O)(=O)Cl)cc1,58 to 59.5
4,CCc1ncc([N+](=O)[O-])n1CCS(=O)(=O)CC,130 to 140
5,O=C1CC=C2c3ccc(Cl)cc3CCC2N1 (configuration not stated),241 to 243
6,COc1nc(NC(=O)NS(=O)(=O)c2sccc2C(F)=C(F)C(F)(F)F)nc(OC)n1,149 to 153
7,CNc1nc(NC)nc(NC)n1,133
8,C#CCNC(=C[N+](=O)[O-])NCCSCc1csc(NC(=N)N)n1,82 to 90
9,COc1snc(OCC#CI)c1C#N,159 to 160
10,Cc1nc(Cn2c(NC3CCN(CCc4c(C)nc5sccn5c4=O)CC3)nc3ccccc32)cs1,130
11,CCOC(=O)C(=O)CC(=O)CC(=O)c1ccc(C)cc1,76
12,Cc1cc2c(cc1C(=O)CBr)C(C)(C)CC(C)C2(C)C (configuration not stated),68
13,Cn1nc(C(F)(F)F)cc1Oc1cc(C#N)cc(OCc2ccc(F)cc2F)n1,109
14,COC(=O)C1=C(CF)NC(C)=C(C(=O)OC(C)C)C1c1cccc(Cl)c1C (configuration not stated),73 to 75
15,CCCc1cc(OC)ccc1-c1noc2cc(OC)ccc12,71 to 72
16,COC(=O)C1=CCC(=NON)C=C1,170 to 172
17,COc1ccc2[nH]cc(CCN3CCC(Oc4ccc(F)cc4)CC3)c2c1,132 to 134
18,C[Si](C)(C)COc1cc([N+](=O)[O-])ccc1N,87
19,CCCN=C(N)Nc1ccnc(CCCCc2c[nH]cn2)n1,172 to 174
20,CSC1Oc2cc3ccccc3cc2C1=O (configuration not stated),118 to 120
21,Cc1cccc(NCCC#N)c1C,65.5 to 67
22,CC(C)CCNC(=O)c1c(N)cc(Cl)cc1Cl,148 to 150
23,COc1ccc(-n2c(C)cc(=O)[nH]c2=S)cc1,248 to 249
24,C=C(C)C(=O)OCCC(=O)Oc1ccc(-c2cc(OC(=O)C(=C)C)cc(-c3ccc(OC(=O)CCOC(=O)C(=C)C)cc3)c2)cc1,88
25,O=C(c1ccc(C(F)(F)F)cc1)N1CCC(=Cc2ccc(C3=NCCO3)cc2)CC1,142
26,CC(C)CCCC(C)CCOc1cc(CCl)c(OCCC(C)CCCC(C)C)cc1CCl (configuration not stated),55
27,Nc1ccc2nc(N)sc2c1,202 to 203

row,SMILES,melting point [°C]
1,Cc1cc(C(=O)N2CCCCC2)ccc1[N+](=O)[O-],71.7 to 72.2
2,CN1C(=O)CN=C(c2ccccc2F)c2c1cc(Cl)c(NC(=O)C(F)(F)F)c2Cl,238 to 240
3,CS(=O)(=O)Nc1ccc2c(c1)S(=O)(=O)NC1CCCN21 (configuration not stated),177 to 180
4,CCCCN1C(=O)CC(=O)NC1=O,107 to 108
5,COc1cc(Nc2c(C#N)cnc3cc(-c4ccc(CN5CCCCC5)cc4)sc23)c(Cl)cc1Cl,218 to 220
6,Cc1nnc(-c2ccc3occ(-c4ccc(C(C)O)cc4)c3c2)o1 (configuration not stated),148 to 149
7,CCCCOCCCn1c(CCCC)nc2c(N)nc3cccnc3c21,101 to 102
8,O=c1[nH]nc(-c2sc3ccccc3c2Cl)o1,218 to 220
9,Oc1cc2ccc(CCCCCl)cc2cc1O,54 to 59
10,O=C(NC(=O)N1CCC(Cc2ccc(F)cc2F)CC1)c1ccc(O)cc1,168
11,CSc1ncc2ccc(=O)[nH]c2n1,270 to 271
12,CC1(C)CN=C(c2cc3cccc(NS(=O)(=O)c4cccs4)c3[nH]2)S1,176 to 177
13,CS(=O)(=O)c1ccc(-c2oc(COc3ccccn3)nc2-c2ccc(F)cc2)cc1,276 to 278
14,CS(=O)(=O)c1ccc(-n2cnc3ccc(-c4nnc(CC(F)(F)F)o4)cc32)cc1,229 to 232
15,COC(=O)CCC(=O)c1cc(C(=O)N(C)C)cs1,98 to 100
16,CC(C)CNS(=O)(=O)CCCCl,68 to 69
17,CC(=O)Nc1nc(OC(C)C)c2nc(Cl)ccc2n1,244
18,O=C(N[C@@H]1C=CC[C@H]1O)OCC(Cl)(Cl)Cl,82 to 84
19,CNC(=O)N1N=C(c2ccc(N)cc2)c2cc(Br)ccc2CC1C (configuration not stated),121 to 124
20,CC(C)[C@H](C[C@H](O)[C@H](C)NC(=O)OC(C)(C)C)C(=O)NCCCn1ccnc1,148 to 150
21,CCOC(=O)CCCCCCCCCCNC(=O)c1cc(O)ccc1O,72 to 74
22,CNC(=C[N+](=O)[O-])NCc1cccnc1,159 to 160
23,CCNc1nc(C)c(C(=O)c2ccc(N)c(N)c2)s1,185 to 225
24,Cc1nnc(F)c(-c2c(F)cc(F)cc2F)c1-c1ccc(Cl)cc1,114 to 115
25,Cc1nccc(N2CCN(C(=O)C3CCN(S(=O)(=O)c4ccc(Br)cc4)CC3)CC2)n1,239 to 240
26,CC(C)c1cc(-c2ccc3c(c2)OCO3)nc(Cl)c1C#N,171 to 173

# More lines, now with the values ahead:
row,melting point [°C],SMILES
1,83 to 85,CN(C)CCOc1cc(C(=O)N2CCC(N(C)CCc3ccccc3)CC2)ccc1-n1cncn1
2,133 to 136,COP(=O)(CN[C@@H](Cc1ccc(-c2ccccc2)cc1)C(=O)O)OC
3,165,CN(C(=O)CN1C(=O)C(NC(=O)Nc2cccc(C#N)c2)N=C(CN2CCSCC2)c2ccccc21)c1ccccc1 (configuration not stated)
4,81 to 83,COC(=O)C1=C(C)NC(C)=C(C(=O)OCCN2CCN(C(c3ccccc3)c3ccccc3)CC2)C1c1ccccc1Cl (configuration not stated)
5,210 to 215,CC(C)(C)C(=O)Nc1ccc(-c2nc3n(c2-c2ccc(NC(=O)C(C)(C)C)cc2)CCS3)cc1
6,135 to 150,NC(=O)CN1C(=O)[C@@H](NC(=O)[C@@H]2CCC(=O)C2)[C@H](c2ccccc2)Sc2ccccc21
7,230 to 232,CON=C1CN(c2nc3c(cc2F)c(=O)c(C(=O)O)cn3-c2ccc(F)cc2F)CC12CN(C(=O)OC(C)(C)C)C2
8,133 to 134,O=C(O)CCC(=NOCc1ccc(OCc2ccc3ccccc3n2)cc1)c1ccccc1
9,56 to 59,C=CCc1ccc(C[C@H](NC(=O)OC(C)(C)C)C(=O)OC)cc1
10,> 300,O=C(O)c1ccc2oc(-c3ccc(O)cc3)cc2c1
11,104 to 105,O=C(N[C@H](Cc1ccc(Oc2ccccc2)cc1)[C@@H](O)c1ccc(F)cc1)c1ccc(F)c2ccccc12 (racemic)
12,190 to 192,CCN(CC)Cc1ccc2cc(COc3cccc4c3CN(C3CCC(=O)NC3=O)C4=O)sc2c1 (configuration not stated)
13,130 to 132,Cc1nc(N2CCN(C(=O)c3ccc(F)cc3)C2=O)sc1C(=O)NCc1ccccc1
14,299 to 300,O=C1C(=O)c2ccccc2C2=C1SCC1(CCN(C(=O)c3ccc(-n4cccn4)cc3)CC1)O2
15,155 to 156,COc1c(OCc2ccccc2)c(OC)c2c(=O)cc(-c3ccc(OCc4ccccc4)c(OCc4ccccc4)c3)oc2c1OC
16,212 to 213,Cc1c(NC(=O)CC(C)(C)C)cc2c(c1C)OC(C)(C)C2(O)Cc1ccccc1 (configuration not stated)
17,192,CNC(=O)c1cccc(NC(=O)Cc2cccc3sccc23)c1
18,218 to 220,Cc1c(-c2ccc(C[C@H](NC(=O)c3c(F)cccc3C(F)(F)F)C(=O)O)cc2)c(=O)n(C)c(=O)n1C
19,173 to 174,CCc1cc(COc2nn(Cc3ccccc3)cc2C(=O)O)ccc1OCc1nc(-c2ccco2)oc1C
20,125,COC(=O)c1ccc2oc(=O)n(Cc3cccc(-c4ncc(OCCCN(C)C)cn4)c3)c2c1
21,109 to 110,O=C(O)CCc1cn(Cc2cc(OCc3ccccc3)cc(OCc3csc(-c4cnccn4)n3)c2)cc1-c1ccccc1
22,231 to 232,Cc1sc(C(=O)O)c2c1-c1nn(Cc3ccccc3)cc1CC2

row,melting point [°C],SMILES
1,102 to 104,CCOC(=O)c1c2ccc(Cl)cc2c(-c2ccccc2)n1CCNC(=O)OCc1ccccc1
2,99 to 100,CC(C)(C)OC(=O)Cn1c(=O)n(Cc2ccccc2)c2ccccc21
3,119 to 121,CC(C)Cn1c(=O)n(C)c(=O)c2c(SCCCO)c(Cc3cccnc3)sc21
4,132,N#CCc1cccc2c(-c3ccc(Cl)cc3)nccc12
5,195 to 196,CCn1c(=O)c2c(nc(/C=C/c3cccc(OC)c3OC)n2C)n(CC)c1=O
6,180 to 188,COC(=O)c1ccc(N(C(=O)c2ccccc2-c2ccccc2)C(=O)c2ccccc2-c2ccccc2)nc1
7,161 to 162,CNC(=O)N(O)CCNC(=O)c1cccc(Oc2ccccc2)c1
8,140 to 141,CCCCCC(C=CC1C(O[Si](C)(C)C(C)(C)C)CC2Cc3c(cccc3OC(=O)c3ccccc3)CC21)O[Si](C)(C)C(C)(C)C (configuration not stated)
9,254 to 256,CC(=O)NC[C@H]1CN(c2ccc(C(=O)c3cnc4cnccn34)cc2)C(=O)O1
10,148 to 150,COc1ccc(F)cc1C(C)(C)CC(O)(Cc1cccc(-c2cccnc2)c1)C(F)(F)F (configuration not stated)
11,109 to 111,COc1cccc(-c2cc3c4ccccc4ccn3n2)c1
12,70 to 72,CC(=O)N1C(=O)N(COCc2ccccc2)C(=O)C12c1ccccc1N(CC(C)C)C(=O)N2C (configuration not stated)
13,118 to 120,Cc1c(-c2ccccc2)oc2c(C(=O)NCCCN3CCN(c4ccccc4O)CC3)cccc2c1=O
14,86.3 to 88.3,CC(C)(C)OC(=O)c1ccc(Cl)cn1
15,143,CCC(C(=O)O)c1cccc(C(=O)c2cc3ccsc3s2)c1 (configuration not stated)
16,203 to 205,CC1(c2ccccc2)C(=O)c2c(cc(OCC(=O)O)c(Cl)c2Cl)C1c1ccccc1 (configuration not stated)
17,102 to 104,CCOC(=O)C(C)(C(=O)OCC)c1cccc(C(=O)c2ccccc2)c1[N+](=O)[O-]
18,125 to 127,Cc1ccccc1C(O)c1cncnc1C(C)(C)C (configuration not stated)
19,98 to 99,Oc1ccc(Cc2ccc(OCC(O)CCc3cccnc3)cc2)cc1 (configuration not stated)
20,146,CCCCCC(C=Cc1ccc(C(=O)O)cc1)c1ccc2c(c1)C(C)(C)CCS2 (racemic)
21,119,CCOC(=O)C1=C(N)N=C(OCC)C(C(=O)OCC)C1c1ccccc1 (configuration not stated)
22,153 to 154,Cc1cc(C(O)=S)cc(N)c1Cc1ccccc1
